Source: patent US7001905B2, “Substituted diarylamines as MEK inhibitors” (Warner-Lambert Company, priority 2000, dated 2006)

Target: T1, MEK (Homo sapiens, UniProt Q02750)
T1 construct: no tag is given for the 2D mutant
Experiment: in vitro MEK assay
Assay type: biochemical
Description: For evaluation of direct MEK activity, 10 μg GST-MEK, is incubated in the presence of absence of test compound with 5 μg of a glutathione S-transferase fusion protein containing p44MAP kinase with a lysine to alanine mutation at position 71 (GST-MAPK-KA). This mutation eliminates kinase activity of MAPK, so only kinase activity attributed to the added MEK remains. Incubations are 15 minutes at 30° C. in a final volume of 50 μL containing 50 mM Tris (pH 7.5), […], 2, μM EGTA, and 10 μM [γ-^32P]ATP. The reaction is stopped by addition of Laemmli SDS sample buffer. Phosphorylated GST-MAPK-KA is resolved by electrophoresis on a 10% polyacrylamide gel. Radioactivity incorporated into GST-MAPK-KA is determined by autoradiography, and subsequent scintillation counting of excised bands.
Alternatively, an artificially activated MEK containing serine to glutamate mutations at positions 218 and 222 (GST-MEK-2E) is used. When these two sites are phosphorylated, MEK activity is increased. Phosphorylation of these sites can be mimicked by mutation of the serine residues to glutamate. For this assay, 5 μg GST-MEK-2E is incubated with 5 μg GST-MAPK-KA for 15 minutes at 30° C. in the same reaction buffer as described above. Reactions are terminated and analyzed as above.

T1 sequence (Q02750 whole entry S218D/S222D, form open): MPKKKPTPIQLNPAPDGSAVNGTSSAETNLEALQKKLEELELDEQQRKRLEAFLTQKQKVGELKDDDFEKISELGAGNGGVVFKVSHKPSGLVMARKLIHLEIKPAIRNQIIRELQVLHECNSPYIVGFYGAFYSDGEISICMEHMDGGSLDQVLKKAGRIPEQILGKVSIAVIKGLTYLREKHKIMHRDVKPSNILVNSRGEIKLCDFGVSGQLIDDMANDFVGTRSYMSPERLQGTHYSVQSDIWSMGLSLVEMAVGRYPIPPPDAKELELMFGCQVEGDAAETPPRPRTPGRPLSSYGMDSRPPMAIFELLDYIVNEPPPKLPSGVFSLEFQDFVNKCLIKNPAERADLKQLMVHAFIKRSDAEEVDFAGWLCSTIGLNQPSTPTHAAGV

| in vitro MEK assay: % inhibition @ 1 μM [%] | IC50 [nM] | SMILES |
| --- | --- | --- |
| 75 | – | Cc1cc(I)ccc1Nc1c(C(=O)O)cc(C(=O)N2CC[C@@H](O)C2)c(F)c1F [Example 61, 3,4-Difluoro-5-[1-((R)-3-hydroxy-pyrrolidin-1-yl)-methanoyl]-2-(4-iodo-2-methyl-phenylamino)-benzoic acid] |
| 78 | – | Cc1cc(I)ccc1Nc1c(C(=O)O)cc(C(=O)NCCCN2CCCC2=O)c(F)c1F [Example 62, 4,5-Difluoro-6-(4-iodo-2-methyl-phenylamino)-N-[3-(2-oxo-pyrrolidin-1-yl)-propyl]-isophthalamic acid] |
| 57 | – | Cc1cc(I)ccc1Nc1c(C(=O)O)cc(C(=O)N2CCN(C)CC2)c(F)c1F [Example 64, 3,4-Difluoro-2-(4-iodo-2-methyl-phenylamino)-5-[1-(4-methyl-piperazin-1-yl)-methanoyl]-benzoic acid] |
| 63 | 1380 | Cc1cc(I)ccc1Nc1c(C(=O)O)cc(C(=O)NCCOCCO)c(F)c1F [Example 65, 4,5-Difluoro-N-[2-(2-hydroxy-ethoxy)-ethyl]-6-(4-iodo-2-methyl-phenylamino)-isophthalamic acid] |
| 14 | – | Cc1cc(I)ccc1Nc1c(C(=O)O)cc(C(=O)NCCC2CCCN2C)c(F)c1F (stereo not drawn) [Example 66, 4,5-Difluoro-6-(4-iodo-2-methyl-phenylamino)-N-[2-(1-methyl-pyrrolidin-2-yl)-ethyl]-isophthalamic acid] |
| 81 | 3300 | Cc1cc(I)ccc1Nc1c(C(=O)O)cc(C(=O)NCCc2ccccn2)c(F)c1F [Example 67, 4,5-Difluoro-6-(4-iodo-2-methyl-phenylamino)-N-(2-pyridin-2-yl-ethyl)-isophthalamic acid] |
| 24 | – | CCCCN(CCS)C(=O)c1cc(C(=O)O)c(Nc2ccc(I)cc2C)c(F)c1F [Example 68, N-Butyl-4,5-difluoro-6-(4-iodo-2-methyl-phenylamino)-N-(2-mercapto-ethyl)-isophthalamic acid] |
| 78 | 2200 | Cc1cc(I)ccc1Nc1c(C(=O)O)cc(C(=O)N2CCCCC2CCO)c(F)c1F (stereo not drawn) [Example 69, 3,4-Difluoro-5-{1-[2-(2-hydroxy-ethyl)-piperidin-1-yl]-methanoyl}-2-(4-iodo-2-methyl-phenylamino)-benzoic acid] |
| 49 | – | Cc1cc(I)ccc1Nc1c(C(=O)O)cc(C(=O)N2CCCCC2CO)c(F)c1F (stereo not drawn) [Example 70, 3,4-Difluoro-5-[1-(2-hydroxymethyl-piperidin-1-yl)-methanoyl]-2-(4-iodo-2-methyl-phenylamino)-benzoic acid] |
| 86 | 1450 | Cc1cc(I)ccc1Nc1c(C(=O)O)cc(C(=O)NCc2cccnc2)c(F)c1F [Example 71, 4,5-Difluoro-6-(4-iodo-2-methyl-phenylamino)-N-pyridin-3-ylmethyl-isophthalamic acid] |
| 65 | – | Cc1cc(I)ccc1Nc1c(C(=O)O)cc(C(=O)Nc2ccc3c(c2)OCCO3)c(F)c1F [Example 72, N-(2,3-Dihydro-benzo[1,4]dioxin-6-yl)4,5-difluoro-6-(4-iodo-2-methyl-phenylamino)-isophthalamic acid] |
| 86 | 1100 | CCOC(=O)c1c[nH]nc1NC(=O)c1cc(C(=O)O)c(Nc2ccc(I)cc2C)c(F)c1F [Example 73, 3-({1-[5-Carboxy-2,3-difluoro-4-(4-iodo-2-methyl-phenylamino)-phenyl]-methanoyl}-amino)-1H-pyrazole-4-carboxylic acid ethyl ester] |
| 50 | – | Cc1cc(I)ccc1Nc1c(C(=O)O)cc(C(=O)Nc2cccnc2)c(F)c1F [Example 74, 4,5-Difluoro-6-(4-iodo-2-methyl-phenylamino)-N-pyridin-3-yl-isophthalamic acid] |
| 92 | 465 | Cc1cc(I)ccc1Nc1c(C(=O)O)cc(C(=O)N2CCCC(O)C2)c(F)c1F (stereo not drawn) [Example 75] |
| 88 | 300 | Cc1cc(I)ccc1Nc1c(C(=O)O)cc(C(=O)N2CCCC(CO)C2)c(F)c1F (stereo not drawn) [Example 76, 3,4-Difluoro-5-[1-(3-hydroxymethyl-piperidin-1-yl)-methanoyl]-2-(4-iodo-2-methyl-phenylamino)-benzoic acid] |
| 83 | 880 | Cc1cc(I)ccc1Nc1c(C(=O)O)cc(C(=O)N2CCC(O)C2)c(F)c1F (stereo not drawn) [Example 77, 3,4-Difluoro-5-[1-(3-hydroxy-pyrrolidin-1-yl)-methanoyl]-2-(4-iodo-2-methyl-phenylamino)-benzoic acid] |

| in vitro MEK assay: % inhibition @ 1 μM [%] | IC50 [nM] | SMILES |
| --- | --- | --- |
| 33 | – | Cc1cc(I)ccc1Nc1c(C(=O)O)cc(C(=O)N2CCC(N3CCCC3)CC2)c(F)c1F [Example 78, 3,4-Difluoro-2-(4-iodo-2-methyl-phenylamino)-5-[1-(4-pyrrolidin-1-yl-piperidin-1-yl)-methanoyl]-benzoic acid] |
| 54 | 1500 | Cc1cc(I)ccc1Nc1c(C(=O)O)cc(C(=O)NCCN2CCOCC2)c(F)c1F [Example 79, 4,5-Difluoro-6-(4-iodo-2-methyl-phenylamino)-N-(2-morpholin-4-yl-ethyl)-isophthalamic acid] |
| 71 | 1700 | Cc1cc(I)ccc1Nc1c(C(=O)O)cc(C(=O)NCc2ccncc2)c(F)c1F [Example 80, 4,5-Difluoro-6-(4-iodo-2-methyl-phenylamino)-N-pyridin4-ylmethyl-isophthalamic acid] |
| 86 | 1800 | Cc1cc(I)ccc1Nc1c(C(=O)O)cc(C(=O)N2CCC(O)CC2)c(F)c1F [Example 81, 3,4-Difluoro-5-[1-(4-hydroxy-piperidin-1-yl)-methanoyl]-2-(4-iodo-2-methyl-phenylamino)-benzoic acid] |
| 90 | 150 | Cc1cc(I)ccc1Nc1c(C(=O)O)cc(C(=O)N2CCC(CCO)CC2)c(F)c1F [Example 83, 3,4-Difluoro-5-{1-[4-(2-hydroxy-ethyl)-piperidin-1-yl]-methanoyl}-2-(4-iodo-2-methyl-phenylamino)-benzoic acid] |
| 79 | 960 | CCn1nccc1NC(=O)c1cc(C(=O)O)c(Nc2ccc(I)cc2C)c(F)c1F [Example 84, N-(2-Ethyl-2H-pyrazol-3-yl)-4,5-difluoro-6-(4-iodo-2-methyl-phenylamino)-isophthalamic acid] |
| 90 | 970 | Cc1cc(I)ccc1Nc1c(C(=O)O)cc(C(=O)Nc2ccc(Cl)nc2)c(F)c1F [Example 85, N-(6-Chloro-pyridin-3-yl)-4,5-difluoro-6-(4-iodo-2-methyl-phenylamino)-isophthalamic acid] |
| 77 | 1100 | Cc1cc(I)ccc1Nc1c(C(=O)O)cc(C(=O)Nc2ccc3cn[nH]c3c2)c(F)c1F [Example 86, 4,5-Difluoro-N-(1H-indazol-6-yl)-6-(4-iodo-2-methyl-phenylamino)-isophthalamic acid] |
| 66 | 2200 | Cc1cc(I)ccc1Nc1c(C(=O)O)cc(C(=O)NC(C)CO)c(F)c1F (stereo not drawn) [Example 87, 4,5-Difluoro-N-(2-hydroxy-1-methyl-ethyl)-6-(4-iodo-2-methyl-phenylamino)-isophthalamic acid] |
| 60 | 1400 | Cc1cc(I)ccc1Nc1c(C(=O)O)cc(C(=O)NCCc2c[nH]cn2)c(F)c1F [Example 88, 4,5-Difluoro-N-[2-(1H-imidazol-4-yl)-ethyl]-6-(4-iodo-2-methyl-phenylamino)-isophthalamic acid] |
| 89 | – | Cc1cc(I)ccc1Nc1c(C(=O)O)cc(C(=O)N2CCOCC2)c(F)c1F [Example 89, 3,4-Difluoro-2-(4-iodo-2-methyl-1-phenylamino)-5-(1-morpholin-4-yl-methanoyl)-benzoic acid] |
| 59 | – | Cc1cc(I)ccc1Nc1c(C(=O)O)cc(C(=O)NCCCn2ccnc2)c(F)c1F [Example 90, 4,5-Difluoro-N-(3-imidazol-1-yl-propyl)-6-(4-iodo-2-methyl-phenylamino)-isophthalamic acid] |
| 58 | – | Cc1cc(I)ccc1Nc1c(C(=O)O)cc(C(=O)NCCCN2CCOCC2)c(F)c1F [Example 91, 4,5-Difluoro-6-(4-iodo-2-methyl-phenylamino)-N-(3-morpholin4-yl-propyl)-isophthalamic acid] |
| 80 | – | Cc1cc(I)ccc1Nc1c(C(=O)O)cc(C(=O)Nc2ccc(N(C)C)cc2)c(F)c1F [Example 92, N-(4-Dimethylamino-phenyl)-4,5-difluoro-6-(iodo-methyl-phenylamino)-isophthalamic acid] |
| 70 | – | CCN1CCN(C(=O)c2cc(C(=O)O)c(Nc3ccc(I)cc3C)c(F)c2F)CC1 [Example 93, 5-[1-(4-Ethyl-piperazin-1-yl)-methanoyl]-3,4-difluoro-2-(4-iodo-2-methyl-phenylamino)-benzoic acid] |
